Here are results for one compound from publication PMC7213079, “Hit Identification of New Potent PqsR Antagonists as Inhibitors of Quorum Sensing in Planktonic and Biofilm Grown Pseudomonas aeruginosa” (Frontiers in Chemistry, 2020).

Common to all, as to type: cell-based, Pseudomonas aeruginosa
The test system of one test is PAO1-L biofilms. In words: Biofilm viability assay (LIVE/DEAD BacLight, CLSM). The following applies: 6 and 24 h.
For the next test, the system named is PAO1-L mCTX::PpqsA-lux. In words: PpqsA-lux bioreporter assay, strain PAO1-L. As to conditions: Pseudomonas aeruginosa, PAO1, read-out: IC50 PAO1-L. As for the experimental part: In silico virtual screening was performed on the PqsR ligand binding domain (LBD) crystal structure [PDB: 4JVI; (Ilangovan et al., [2013])] using the University of Nottingham Managed Chemical Compound Collection (MCCC) containing 85,061 compounds. Molecular docking was performed using both the OpenEye docking (OpenEye Scientific Software Inc. (Hawkins et al., [2007]) and Schrödinger Suite for molecular modeling (Friesner et al., [2004]; Halgren et al., [2004]). A cut off value of the docking score function was set to -9.0 and the resulting high scoring compounds were further examined (Friesner et al., [2004]; Halgren et al., [2004]). This gave a library of around 500 diverse molecules that were evaluated using in vitro screening in a P. aeruginosa PAO1-L mCTX::PPqsA-lux reporter assay (Diggle et al., [2011]).
To inform the structural variation of 7, crystal structures with the endogenous ligand [4-hydroxy-2-heptylquinoline (NHQ)] and the inhibitor M64 were used (Ilangovan et al., [2013]; Kitao et al., [2018]). The PqsR LBD is dominated by lipophilic interactions, therefore the current SAR exploration mainly focused on varying the aromatic tail substituents and examining the effect of 8-position substitution. The rationale for these modifications was primarily based on molecular docking studies that provided insights into the mode of binding of 7 and approaches intended to improve potency. The substituent at the para- position of the aromatic ring appeared to be crucial for biological activity due to the vital π-π stacking interaction of this group with Tyr^258. […] These strains emit light upon activation of PqsR by the endogenous production of these signal molecules. […] The results of the SAR in this assay highlight the importance of testing any prospective anti-virulence strategy on multiple genetically distinct P. aeruginosa strains as a means to reduce the chance of failure at both pre-clinical and clinical stages (Freschi et al., [2015]).
PAO1-L Wild type PAO1, Lausanne subline. B.
PAO1-L mCTX::PpqsA- PAO1-L with chromosomal mini-CTX::PpqsA-lux (Soukarieh lux insertion; TcR et al., 2018) […]
mini-CTX::PpqsA-lux R6K-based mini-CTX suicide plasmid for the (Diggle et chromosomal insertion of a PpqsA-lux al., 2007) transcriptional reporter fusion; TcR
Biosensor reporter assay:
Strains PA14 mCTX::PpqsA-lux and PAO1-L mCTX::PpqsA-lux were constructed using plasmid mini-CTX::PpqsA-lux as previously described (Diggle et al., 2007) and the assay was performed according to published procedures (Fletcher et al., 2007). For screening, the compounds were tested at 10 µM concentration which was prepared from 10 mM stock in DMSO. […]
In general terms: In a reporter assay the amount or activity of a reporter protein is the signal.

The test system of the next test is PAO1-L. As to the kind of experiment: AQ (HHQ, PQS) quantification by LC-MS/MS in planktonic cultures, PAO1-L. The following applies: 3 x IC50. As for the experimental part: Since PqsR controls expression of the pqsABCDE operon encoding the enzymes required for different stages of AQ biosynthesis, quantification of HHQ, and PQS provides a direct measurement for inhibition of the biosynthetic pathway. Compound 40 was evaluated for its effect on AQ biosynthesis at a concentration three times the corresponding IC50 values for PAO1-L and PA14.
Figure 5 Effect of compound 40 on AQ production: Quantification of AQ concentrations after treatment with the PqsR inhibitor 40 at 3x IC50 value for PAO1-L and PA14 each strain. The graph represents the average of three independent experiments carried out in triplicate (n = 9) for both strains.
For each test sample, 100µl of sterile filtered supernatant (the same preparation as for pyocyanin) was spiked with 10µl of an internal standard solution (10µM d4-PQS in MeOH), and diluted with water to a total volume of 500µl. […]
screening of the LC eluent for specific AQ analytes. Where chromatographic peaks for HHQ and PQS were detected, a peak area was determined and analyte peak area/internal standard peak area calculated.
AQ quantification in biofilm cultures: […]
For this experiment, the P. aeruginosa PAO1-L strain and M9 minimal medi um were used. […] The supernatant was col lected and the AQ extraction and quantification were performed following the LC MS/MS protocol described above . […]

Structures are written as SMILES. Entries after “also recorded” stand apart in the source; their conditions may differ.

Usually IC50 stands for the concentration at which inhibition is half-maximal.

Procedure for PAO1-L biofilms: PAO1-L biofilms were established for 2 days before challenging with these treatments for 6 and 24 h followed by Live/Dead staining.
Figure 7 Bar chart showing PAO1-L biofilm viability quantified after treatment with different conditions for 6 or 24 h.
Mature pre-established P. aeruginosa PAO1-L biofilms were grown to assess the effects of co-
For these assays, PAO1-L biofilms were grown on round glass coverslips (8 mm, #1.5 thickness) under flow conditions (20 rpm) in FAB containing 10
mM glucose medium inoculated with a diluted (OD600nm = 0.01) bacterial suspension from overnight
cultures in LB. Biofilms were cultivated at 30°C for 2 days with medium replacement every day.

In the case of `Cn1c2ccccc2c2nnc(SCC(=O)Nc3ccc(Oc4ccccn4)cc3)nc21` [Compound 40, 2-((5-Methyl-5H-[1,2,4]triazino[5,6-b]indol-3-yl)thio)-N-(4-(pyridin-2-yloxy)phenyl)acetamide], in the test on PAO1-L biofilms (pre-established PAO1-L biofilms (48 h), 40 at 10 μM), the biofilm viability entry is listed as “growth of the community increased; also recorded: slight increase in viability”. Further, the “biofilm killing in combination with CIP” value in the test on PAO1-L biofilms (pre-established PAO1-L biofilms, 40 10 μM combined with ciprofloxacin 60 μg/mL) was “did not result in an enhanced biofilm killing”. Besides, in the test on PAO1-L mCTX::PpqsA-lux, the IC50 worked out at 250 ± 120 nM. Also, in the test on PAO1-L, the “production of HHQ and PQS” value is listed as “substantially reduce”.
